Experimental data published in US8742158B2, “Protease inhibitors” (TaiMed Biologics, Inc., priority 2006, dated 2014).
“And” between values parts separate entries of the source, which are not always exact repeats. Equal entries are not always repeated. Where two headings read alike, the source gives them in different places.

What was measured:
HIV-1 Protease = HIV-1 Protease (Human immunodeficiency virus type 1 group M subtype B (isolate HXB2) (HIV-1), UniProt P04585); experiment: Enzymatic (FRET fluorometric) assay for determining the inhibition constant (Ki) of compounds targeting the HIV protease; type: biochemical; details: for IC50: read-out: IC50 ENZYME HIV-1 Protease
Excerpt: Enzymatic Assay for Determining the Inhibition Constant (Ki) of Synthetic Compounds Targeting the HIV Protease
This is a fluorometric assay based on the cleavage by protease of a substrate carrying a donor group (EDANS) and an acceptor group (DABCYL) on each side of the cleavage site, interacting together through fluorescence resonance energy transfer (FRET) as described by Matayoshi et al. (Science 247:[…], 1990).
After calculation of Vo and Vi, the inhibition constant (Ki) of the compound is determined using the equation of Henderson:
where Vo=the enzyme's initial velocity
Vi=the enzyme velocity in the presence of the inhibitory compound,
[I]=inhibitor concentration, [S]=substrate concentration,
Km=Michaelis-Menten constant and Kiapp=apparent Ki
Graphs are traced and the Ki determined using GraphPad Prism software v. 3.0.

HIV-1 viral strain NL4-3 = experiment: Anti-viral assay in vitro (MTT, infected MT-4 cells, six days); type: cell-based; details: Human immunodeficiency virus 1, NL43, MT4, 144 h, read-out: ANTI-HIV-EC50 VIRAL STRAIN NL4-3
Protocol: Anti-Viral and Cytotoxicity Assays In Vitro
• To evaluate the EC50 of our compounds, various drug concentrations are incubated with the infected cell for six days and then the metabolic activity of the cells is monitored by the MTT assay. (See A. J. Japour et al., Antimicrobial Agents and Chemotherapy, 37, 1095-1101, 1993 and R. Pauwels et al. Journal of Virological Methods, 20, 309-321, 1988) • We use the laboratory viral strain NL4.3 as wild type virus and the cell line used is MT-4 which is a T-cell line highly sensitive to HIV-1. We also use some WT clinical strains. To address the resistance issue we assay the inhibitors with NL4.3 mutants which are designed to be resistant to specific commercially available inhibitors. • The same MTT assay is used to evaluate the CCIC50 (cell culture of IC50) of our compounds except that the virus is omitted.

[1] = KIGRAPHIC ENZYME HIV-1 Protease, Ki determined graphically, read-out: […] ENZYME HIV-1 Protease
[2] = calculated Ki, read-out: KI-CALC ENZYME HIV-1 Protease

## Cc1ccc(C(=O)N[C@@H](Cc2ccccc2Br)C(=O)NCCCC[C@@H](CO)N(CC(C)C)S(=O)(=O)c2ccc(N)cc2)cc1O [EX 37]
HIV-1 Protease; [1]
  Ki: 0.224 nM
HIV-1 Protease; [2]
  Ki: < 3.8 nM
HIV-1 Protease
  IC50: 0.683 nM
HIV-1 viral strain NL4-3
  EC50: 60 nM

## CC(C)CN([C@H](CO)CCCCNC(=O)[C@H](Cc1ccccc1Br)NC(=O)OCc1ccncc1)S(=O)(=O)c1ccc(N)cc1 [EX 38]
HIV-1 Protease; [1]
  Ki: 0.27 nM
HIV-1 Protease
  IC50: 0.92 nM
HIV-1 viral strain NL4-3
  EC50: 248 nM

## CC(C)CN([C@H](CO)CCCCNC(=O)[C@H](Cc1ccc2ccccc2c1)NCc1ccccn1)S(=O)(=O)c1ccc(N)cc1 [EX 56]
HIV-1 Protease
  IC50: 5.9 nM
HIV-1 viral strain NL4-3
  EC50: > 50000 nM

## CC(C)CN([C@H](CO)CCCCNC(=O)[C@@H](NS(=O)(=O)c1cccs1)C(c1ccccc1)c1ccccc1)S(=O)(=O)c1ccc(N)cc1 [EX 57]
HIV-1 Protease; [1]
  Ki: 0.541 nM
HIV-1 Protease; [2]
  Ki: < 3.8 nM
HIV-1 Protease
  IC50: 0.601 nM
HIV-1 viral strain NL4-3
  EC50: 64 nM

## CC(C)CN([C@H](CO)CCCCNC(=O)[C@@H](NC(=O)NCc1ccncc1)C(c1ccccc1)c1ccccc1)S(=O)(=O)c1ccc(N)cc1 [EX 62]
HIV-1 Protease; [1]
  Ki: 0.443 nM
HIV-1 Protease; [2]
  Ki: < 3.8 nM
HIV-1 Protease
  IC50: 0.51 nM
HIV-1 viral strain NL4-3
  EC50: 170 nM

## Cc1ccc(C(=O)N[C@@H](Cc2ccccc2C)C(=O)NCCCC[C@@H](CO)N(CC(C)C)S(=O)(=O)c2ccc(N)cc2)cc1O [EX 63]
HIV-1 Protease; [2]
  Ki: < 3.8 nM
HIV-1 Protease
  IC50: 0.938 nM
HIV-1 viral strain NL4-3
  EC50: 165 nM

## COC(=O)N[C@H](C(=O)NCCCC[C@H](C(N)=O)N(CC(C)C)S(=O)(=O)c1ccc(N)cc1)C(c1ccccc1)c1ccccc1 [EX. 7]
HIV-1 Protease; [1]
  Ki: 0.049 nM and 0.042 nM
HIV-1 Protease
  IC50: 0.652 nM and 0.507 nM
HIV-1 viral strain NL4-3
  EC50: 30 nM

## COC(=O)N[C@H](C(=O)NCCCC[C@@H](CO)N(Cc1cccnc1)S(=O)(=O)c1ccc(N)cc1)C(c1ccccc1)c1ccccc1 [EX. 33]
HIV-1 Protease; [2]
  Ki: < 3.8 nM
HIV-1 Protease
  IC50: 1.01 nM
HIV-1 viral strain NL4-3
  EC50: 196 nM

## Cc1ncccc1C(=O)N[C@@H](Cc1ccccc1Br)C(=O)NCCCC[C@@H](CO)N(CC(C)C)S(=O)(=O)c1ccc(N)cc1 [EX. 39]
HIV-1 Protease; [1]
  Ki: 0.183 nM
HIV-1 Protease; [2]
  Ki: < 3.8 nM
HIV-1 Protease
  IC50: 0.58 nM
HIV-1 viral strain NL4-3
  EC50: 70 nM

## Cc1ccc(C(=O)N[C@@H](Cc2ccccc2Br)C(=O)NCCCC[C@@H](CO)N(CC(C)C)S(=O)(=O)c2ccc(N)cc2)cn1 [EX. 40]
HIV-1 Protease; [1]
  Ki: 0.217 nM
HIV-1 Protease; [2]
  Ki: < 3.8 nM
HIV-1 Protease
  IC50: 0.567 nM
HIV-1 viral strain NL4-3
  EC50: 55 nM

## CC(C)CN([C@H](CO)CCCCNC(=O)[C@@H](Cc1ccccc1Br)NC(=O)c1ccc2c(c1)OCO2)S(=O)(=O)c1ccc(N)cc1 [EX. 41]
HIV-1 Protease; [1]
  Ki: 0.05 nM
HIV-1 Protease
  IC50: 0.336 nM
HIV-1 viral strain NL4-3
  EC50: 43 nM

## CC(C)CN([C@H](CO)CCCCNC(=O)C(Cc1ccccc1Br)NC(=O)c1ccncc1)S(=O)(=O)c1ccc(N)cc1 (some centres unmarked) [EX. 42]
HIV-1 Protease; [1]
  Ki: 0.182 nM
HIV-1 Protease; [2]
  Ki: < 3.8 nM
HIV-1 Protease
  IC50: 0.618 nM
HIV-1 viral strain NL4-3
  EC50: 40 nM

## CC(C)CN([C@H](CO)CCCCNC(=O)[C@H](Cc1ccccc1Br)NC(=O)c1cnccn1)S(=O)(=O)c1ccc(N)cc1 [EX. 44]
HIV-1 Protease; [1]
  Ki: 0.318 nM
HIV-1 Protease
  IC50: 0.471 nM
HIV-1 viral strain NL4-3
  EC50: 60 nM
